Results taken from patent US6716987B1, “Derivatives of benzofuran or benzodioxazole compounds” (Kyowa Hakko Kogyo Co., Ltd., priority 1995, dated 2004).

Legend:
[1] = tested on: cAMP-specific phosphodiesterase (PDE IV); experiment: Inhibition of the PDE IV enzyme derived from a dog trachea; assay type: biochemical; settings: test compound 10^−6 M; PDE IV from dog tracheal smooth muscle; substrate cAMP 1 μM
Method: cAMP-specific phosphodiesterase (PDE IV) was purified from a dog tracheal smooth muscle according to the method of Torphy et al. [Molecular Pharmacol., 37, 206-214 (1990)]. The PDE activity was measured by the following two steps according to the method of Kincaid and Manganiello et al. [Method in Enzymology (J. D. Corbin and R. A. Jonson, Eds.), 199, 457-470 (1988)]. Using [^3]cAMP (at a final concentration of 1 μM) as a substrate, the reaction was carried out in a standard mixture containing N,N-bis(2-hydroxyethyl)-2-aminoethanesulfonic acid (50 mM, pH=7.2), MgCl2 (1 mM), and soybean trypsin inhibitor (0.1 mg/ml). The reaction was initiated by adding the enzyme, followed by incubation at 30° C. for 10 to 30 minutes. After stopping the reaction with hydrochloric acid, the generated […] was completely converted to adenosine by 5′-nucleotidase.
The resultant was subjected to chromatography on DEAE-Sephadex A-25, and radio activity of the eluted [^3H] adenosine was counted using a scintillation counter. Each of the test drugs was dissolved in DMSO (final concentration 1.7%) and then added to the mixture.

| SMILES | Enzyme Inhibitory Activity (%, 10^−6 M) [1] [%] | melting point |
| --- | --- | --- |
| COc1ccc(C(=O)Nc2c(Cl)cncc2Cl)c2c1OCC2CC(=O)NCc1cccnc1 (racemic) [Compound 18, (±)-4-[(3,5-Dichloro-4-pyridyl)aminocarbonyl]-7-methoxy-3-[(3-pyridylmethyl)aminocarbonyl]methyl-2,3-dihydrobenzofuran] | 81 | 258 to 261 °C (dec.) |
| CCOC(=O)/C(=C/c1ccc(OC)c2c1CC(C)(C)O2)c1ccncc1 [Compound 87, (E)-4-[2-Ethoxycarbonyl-2-(4-pyridyl)ethenyl]-7-methoxy-2,2-dimethyl-2,3-dihydrobenzofuran] | 61 | 98 to 100 °C |
| CCOC(=O)Cc1coc2c(OC)ccc(C(=O)Nc3c(Cl)cncc3Cl)c12 [Compound 43, 3-Ethoxycarbonylmethyl-4-[(3,5-dichloro-4-pyridyl)-aminocarbonyl]-7-methoxybenzofuran] | 62 | 216 to 218 °C |
| CCOC(=O)CC1COc2c(OC)ccc(C(=O)Nc3ccccc3)c21 (racemic) [Compound 7, (±)-3-Ethoxycarbonylmethyl-7-methoxy-4-phenylaminocarbonyl-2,3-dihydrobenzofuran] | 37 | 169 to 170 °C |
| COc1ccc(CSc2ccncc2)c2c1OCC2C (racemic) [Compound 59, (±)-7-Methoxy-3-methyl-4-(4-pyridylthiomethyl)-2,3-dihydrobenzofuran] | 24 | 110 to 112 °C |
| COc1ccc(C(Sc2ccncc2)c2ccccc2)c2c1OCC2C (racemic) [Compound 60A, (±)-7-Methoxy-3-methyl-4-[1-phenyl-1-(4-pyridylthio)-methyl]-2,3-dihydrobenzofuran] | 15 | 59 to 62 °C |
| CCOC(=O)C(C#N)=Cc1ccc(OC)c2c1CC(C)(C)O2 [Compound 89, 4-(2-Cyano-2-ethoxycarbonylethenyl)-7-methoxy-2,2-dimethyl-2,3-dihydrobenzofuran] | 33 | 112 to 117 °C |
| COc1ccc(C(=O)Cc2c(Cl)cncc2Cl)c2c1OCC2C (racemic) [Compound 103, (±)-4-[2-(3,5-Dichloro-4-pyridyl)-1-oxoethyl]-7-methoxy-3-methyl-2,3-dihydrobenzofuran] | 88 | 99 to 104 °C |
| COc1ccc(C(=O)Nc2c(Cl)cncc2Cl)c2c1OCC2CC(=O)O (racemic) [Compound 9, (±)-3-Carboxymethyl-4-(3,5-dichloro-4-pyridylaminocarbonyl)-7-methoxy-2,3-dihydrobenzofuran] | 22 | 259 to 263 °C |
| CCOC(=O)CC1COc2c(OC)ccc(C(=O)NC3CCCCC3)c21 (racemic) [Compound 8, (±)-4-Cyclohexylaminocarbonyl-3-ethoxycarbonylmethyl-7-methoxy-2,3-dihydrobenzofuran] | 5 | 197 to 199 °C |
| COc1ccc(C(=O)NC2CCCCC2)c2c1OCC2CC(=O)O (racemic) [Compound 12, (±)-3-Carboxymethyl-4-cyclohexylaminocarbonyl-7-methoxy-2,3-dihydrobenzofuran] | 8 | 246 to 247 °C |
| COc1ccc(C=Cc2c(Cl)cncc2Cl)c2c1CC1(CCCC1)O2 [Compound 131, 7-[2-(3,5-Dichloro-4-pyridyl)ethenyl]-4-methoxy-spiro[2,3-dihydrobenzofuran-2,1′-cyclopentane]] | 51 | 99 to 101 °C |
| COc1ccc(C(=O)Nc2c(Cl)cncc2Cl)c2c1OCC2CC(=O)NCc1ccccc1 (racemic) [Compound 25, (±)-3-(Benzylaminocarbonyl)methyl-4-[(3,5-dichloro-4-pyridyl)aminocarbonyl]-7-methoxy-2,3-dihydrobenzofuran] | 84 | 284 to 286 °C |
| COc1ccc(C(C#N)Cc2c(Cl)cncc2Cl)c2c1OC(C)(C)C2 (racemic) [Compound 63, (±)-4-[1-Cyano-2-(3,5-dichloro-4-pyridyl)ethyl]-2,2-dimethyl-7-methoxy-2,3-dihydrobenzofuran] | 85 | 158 to 162 °C |
| CCC1COc2c(OC)ccc(C(=O)Nc3c(Cl)cncc3Cl)c21 (racemic) [Compound 3, (±)-4-[(3,5-Dichloro-4-pyridyl)aminocarbonyl]-3-ethyl-7-methoxy-2,3-dihydrobenzofuran] | 75 | 202 to 204 °C |
| COc1ccc(C(=O)Nc2c(Cl)cncc2Cl)c2cc(-c3ccncc3)oc12 [Compound 38, 4-[(3,5-Dichloro-4-pyridyl)aminocarbonyl]-7-methoxy-2-(4-pyridyl)benzofuran] | 89 | 289 to 290 °C |
| COc1ccc(C(=O)Nc2c(Cl)cncc2Cl)c2c1OC(C)(C)CC2 [Compound 122, 5-(3,5-Dichloro-4-pyridylaminocarbonyl)-8-methoxy-2,2-dimethyl-3,4-dihydrobenzopyran] | 92 | 155 to 156 °C |
| COc1ccc(C#Cc2ccncc2)c2c1OC1(CCCC1)C2 [Compound 142, 7-Methoxy-4-[2-(4-pyridyl)ethynyl]-spiro[2,3-dihydrobenzofuran-2,1′-cyclopentane]] | 76 | 128 to 131 °C |
| COc1ccc(C(=O)Nc2c(Cl)cncc2Cl)c2c1OCC2CC(=O)NCc1ccccc1Cl (racemic) [Compound 31, (±)-3-[(2-Chlorobenzyl)aminocarbonyl]methyl-4-[(3,5-dichloro-4-pyridyl)aminocarbonyl]-7-methoxy-2,3-dihydro-benzofuran] | 89 | 288 to 289 °C |
| COc1ccc(C(=O)Nc2c(Cl)cncc2Cl)c2c1OCC2CC(=O)Nc1ccccc1 (racemic) [Compound 27, (±)-4-[(3,5-Dichloro-4-pyridyl)aminocarbonyl]-7-methoxy-3-(phenylaminocarbonyl)methyl-2,3-dihydrobenzofuran] | 75 | 296 to 300 °C (dec.) |
| COc1ccc(C(=O)Nc2c(Cl)cncc2Cl)c2c1OCC2C (racemic) [Compound 2, (±)-4-[(3,5-Dichloro-4-pyridyl)aminocarbonyl]-7-methoxy-3-methyl-2,3-dihydrobenzofuran] | 77 | 198 to 200 °C |
| COc1ccc(CCc2ccncc2)c2c1OC1(CCCCC1)C2.Cl [Compound 55, 7-Methoxy-4-[2-(4-pyridyl)ethyl]-spiro[2,3-dihydro-benzofuran-2,1′-cyclohexane].hydrochloride] | 86 | – |
| COc1ccc(/C=C/c2ccncc2)c2cc(-c3ccccc3)oc12.Cl [Compound 81, (E)-7-Methoxy-2-phenyl-4-[2-(4-pyridyl)ethenyl]-benzofuran.hydrochloride] | 56 | – |
| COc1ccc(C(C)(C#N)Cc2ccncc2)c2c1OC1(CCCC1)C2.Cl (racemic) [Compound 65, (±)-4-[1-Cyano-1-methyl-2-(4-pyridyl)ethyl]-7-methoxy-spiro[2,3-dihydrobenzofuran-2,1′-cyclopentane].hydrochloride] | 74 | – |
